The source of these data is article PMC10223284, “Category-Based Toxicokinetic Evaluations of Data-Poor Per- and Polyfluoroalkyl Substances (PFAS) using Gas Chromatography Coupled with Mass Spectrometry” (Toxics, 2023).

SMILES strings stand for the structures. Read-outs that look alike come from different tables or passages of the source.

By half-life is commonly meant the time in which the quantity being followed falls by half.

A short description of the data set: Hepatic metabolic stability (hepatocyte clearance) assay, substrate depletion. The class given is in vitro ADME, human. The settings on record: both sexes, human; for half-life at 1 μM: read-out: Linear Regression Results, Best-Fit Values, Half Life. Summed up:
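Substrate depletion of 1 μM compound, 37 °C, with pooled human hepatocytes (50-donor, 50,000 cells/100 μL) in William's E; samples quenched in acetonitrile up to 240 min, triplicate time points. Intrinsic clearance (μL/min/million hepatocytes) and half-life derived from semi-log slope, background-adjusted using media-only and inactivated-cell controls; compounds with ≥50% abiotic loss at T120 excluded.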

The mark [1] stands for this setting: hepatocytes, background-subtracted, read-out: Bkgd-Sub Clearance (µL/min/106 hepatocytes).
Setting [2] is: hepatocytes, hepatocyte clearance, Conc 1000 nM, not background adjusted, read-out: Unadj Clint.
Where [3] appears, read: hepatocytes, pooled human hepatocyte suspensions, 1 μM, read-out: In Vitro Clint.
Setting [4] is: hepatocytes, unadjusted hepatocyte intrinsic clearance, read-out: Unadj in vitro Clint.
[5] abbreviates: hepatocytes, hepatocyte time course, NS = slope not significant, read-out: Linear Regression Results, Best-Fit Values, Clearance.
[6] abbreviates: hepatocytes, hepatocyte time course, NS = slope not significant.
The mark [7] stands for this setting: s9, Bayesian analysis median, 1 μM assay concentration (Table S9), read-out: Clint.1.Med.

As to `OCC(F)(F)C(F)(F)C(F)(F)C(F)(F)C(F)(F)C(F)(F)C(F)(F)C(F)(F)CO` [1H,1H,10H,10H-Perfluorodecane-1,10-diol], the hepatocyte CLint at 1 μM is 56.6 µL/min/1e6 cells under setting [1]; 56.6 µL/min/1e6 cells under setting [2]; 49.9 µL/min/1e6 cells under setting [3]; 56.6 µL/min/1e6 cells under setting [4]; 56.6 µL/min/1e6 cells under setting [5]; 115 µL/min/1e6 cells under setting [7]. Besides, the half-life at 1 μM under setting [6] is 24.5 min.
Turning to `OCCC(F)(F)C(F)(F)C(F)(F)C(F)(F)F` [4:2 Fluorotelomer alcohol], the hepatocyte CLint at 1 μM is, setting by setting: under setting [1], 37.7 µL/min/1e6 cells; under setting [2], 45.6 µL/min/1e6 cells; under setting [3], 37.7 µL/min/1e6 cells; under setting [4], 45.6 µL/min/1e6 cells; under setting [5], 45.6 µL/min/1e6 cells; under setting [7], 306 µL/min/1e6 cells. Besides, under setting [6], the half-life at 1 μM stood at 30.4 min.
Take `NC(=O)C(F)(F)C(F)(F)C(F)(F)F` [Heptafluorobutyramide]: the hepatocyte CLint at 1 μM under setting [1] worked out at 19.9 µL/min/1e6 cells; the hepatocyte CLint at 1 μM (hepatocytes, hepatocyte clearance, Conc 1000 nM, background adjusted, read-out: Bkgd Adj Clint) worked out at 19.9 µL/min/1e6 cells; the hepatocyte CLint at 1 μM under setting [2] is 19.9 µL/min/1e6 cells; the hepatocyte CLint at 1 μM (hepatocytes, hepatocyte intrinsic clearance adjusted for background (abiotic) loss, read-out: Bkgd_adj_Clint) came out at 19.9 µL/min/1e6 cells; the hepatocyte CLint at 1 μM under setting [3] amounted to 19.9 µL/min/1e6 cells; the hepatocyte CLint at 1 μM under setting [4] amounted to 19.9 µL/min/1e6 cells. The hepatocyte CLint at 1 μM under setting [5] turned out to be 19.9 µL/min/1e6 cells. The half-life at 1 μM under setting [6] turned out to be 69.5 min.
